Measurements published in ChEMBL document CHEMBL5465560, “Selectivity Literature for EUbOPEN Chemogenomic Library” (2024).

What was measured:
[1] = molecular target: LIM domain kinase 2 (Homo sapiens) (UniProt P53671); experiment: Selectivity interaction (KinomeScan (DiscoverX)) EUB0000045b LIMK2
[2] = molecular target: T1, MAP kinase-activated protein kinase 5 (Homo sapiens) (UniProt Q8IW41); experiment: Selectivity interaction (Upstate Kinase Profiler service (Millipore)) EUB0000056c MAPKAPK5; settings: at 1 µM
T1 sequence (whole entry): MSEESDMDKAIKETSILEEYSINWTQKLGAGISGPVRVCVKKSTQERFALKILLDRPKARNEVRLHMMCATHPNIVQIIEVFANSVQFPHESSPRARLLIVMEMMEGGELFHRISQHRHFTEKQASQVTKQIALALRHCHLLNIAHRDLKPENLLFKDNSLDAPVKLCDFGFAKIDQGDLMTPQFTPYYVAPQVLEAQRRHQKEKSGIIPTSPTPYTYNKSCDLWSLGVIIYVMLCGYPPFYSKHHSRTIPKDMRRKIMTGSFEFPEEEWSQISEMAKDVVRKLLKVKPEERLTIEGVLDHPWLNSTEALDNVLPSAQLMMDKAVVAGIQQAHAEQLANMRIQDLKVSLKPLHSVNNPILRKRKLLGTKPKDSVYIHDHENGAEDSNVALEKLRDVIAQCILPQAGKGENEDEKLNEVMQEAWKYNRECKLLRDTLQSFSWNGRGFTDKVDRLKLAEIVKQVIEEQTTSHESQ

[3] = molecular target: T2, Serine/threonine-protein kinase 3 (Homo sapiens) (UniProt Q13188); experiment: Selectivity interaction (ActivX KiNativ screen (ex vivo kinase selectivity in human PBMCs)) EUB0001619a STK3; type: cell-based; settings: PBMC, at 1 µM
T2 sequence (whole entry): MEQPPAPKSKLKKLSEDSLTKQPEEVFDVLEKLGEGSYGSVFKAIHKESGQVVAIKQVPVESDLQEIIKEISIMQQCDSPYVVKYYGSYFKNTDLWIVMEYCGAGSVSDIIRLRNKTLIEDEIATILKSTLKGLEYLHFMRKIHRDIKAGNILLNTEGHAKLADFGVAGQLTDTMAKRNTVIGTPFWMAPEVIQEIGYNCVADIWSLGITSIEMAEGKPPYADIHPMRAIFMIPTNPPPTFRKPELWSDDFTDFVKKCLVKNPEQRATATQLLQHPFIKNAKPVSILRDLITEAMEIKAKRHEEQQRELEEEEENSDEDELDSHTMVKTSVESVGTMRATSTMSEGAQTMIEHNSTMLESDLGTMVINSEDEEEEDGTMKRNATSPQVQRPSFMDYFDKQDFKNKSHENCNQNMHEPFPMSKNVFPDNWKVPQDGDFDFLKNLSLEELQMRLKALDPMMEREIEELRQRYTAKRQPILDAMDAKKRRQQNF

[4] = molecular target: T3, Tyrosine-protein kinase receptor TYRO3 (Homo sapiens) (UniProt Q06418); experiment: Selectivity interaction (Kinase panel (Invitrogen)) EUB0000639a TYRO3; settings: at 200 nM
T3 sequence (whole entry): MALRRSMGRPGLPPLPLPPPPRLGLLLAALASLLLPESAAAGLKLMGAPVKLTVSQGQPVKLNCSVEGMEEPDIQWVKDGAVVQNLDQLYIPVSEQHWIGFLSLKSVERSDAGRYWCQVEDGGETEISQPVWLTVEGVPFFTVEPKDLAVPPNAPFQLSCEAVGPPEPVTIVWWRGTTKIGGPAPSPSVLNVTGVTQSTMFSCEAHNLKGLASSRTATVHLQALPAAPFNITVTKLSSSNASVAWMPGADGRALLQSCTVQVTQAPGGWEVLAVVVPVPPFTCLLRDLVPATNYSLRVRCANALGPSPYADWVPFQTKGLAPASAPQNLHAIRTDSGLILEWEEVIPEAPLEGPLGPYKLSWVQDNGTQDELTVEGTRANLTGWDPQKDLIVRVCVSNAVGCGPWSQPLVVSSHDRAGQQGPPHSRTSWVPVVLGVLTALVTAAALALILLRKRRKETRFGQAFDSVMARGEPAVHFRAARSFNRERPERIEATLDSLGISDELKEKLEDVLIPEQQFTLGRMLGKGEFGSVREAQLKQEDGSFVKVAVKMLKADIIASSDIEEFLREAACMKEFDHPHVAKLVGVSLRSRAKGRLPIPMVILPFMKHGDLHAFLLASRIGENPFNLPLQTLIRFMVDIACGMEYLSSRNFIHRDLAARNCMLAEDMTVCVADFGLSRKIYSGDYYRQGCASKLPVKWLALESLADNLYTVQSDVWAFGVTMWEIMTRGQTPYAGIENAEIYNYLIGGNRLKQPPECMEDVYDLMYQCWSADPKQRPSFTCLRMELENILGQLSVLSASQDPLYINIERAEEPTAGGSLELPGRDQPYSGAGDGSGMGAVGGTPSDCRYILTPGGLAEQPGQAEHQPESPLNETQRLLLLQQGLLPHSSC

[5] = molecular target: T4, Mitogen-activated protein kinase kinase kinase 2 (Homo sapiens) (UniProt Q9Y2U5); experiment: Selectivity interaction (ActivX KiNativ screen (kinase selectivity in THP-1 cell lysates)) EUB0000639a MAP3K2; type: subcellular; settings: lysate, at 0.04 µM
T4 sequence (whole entry): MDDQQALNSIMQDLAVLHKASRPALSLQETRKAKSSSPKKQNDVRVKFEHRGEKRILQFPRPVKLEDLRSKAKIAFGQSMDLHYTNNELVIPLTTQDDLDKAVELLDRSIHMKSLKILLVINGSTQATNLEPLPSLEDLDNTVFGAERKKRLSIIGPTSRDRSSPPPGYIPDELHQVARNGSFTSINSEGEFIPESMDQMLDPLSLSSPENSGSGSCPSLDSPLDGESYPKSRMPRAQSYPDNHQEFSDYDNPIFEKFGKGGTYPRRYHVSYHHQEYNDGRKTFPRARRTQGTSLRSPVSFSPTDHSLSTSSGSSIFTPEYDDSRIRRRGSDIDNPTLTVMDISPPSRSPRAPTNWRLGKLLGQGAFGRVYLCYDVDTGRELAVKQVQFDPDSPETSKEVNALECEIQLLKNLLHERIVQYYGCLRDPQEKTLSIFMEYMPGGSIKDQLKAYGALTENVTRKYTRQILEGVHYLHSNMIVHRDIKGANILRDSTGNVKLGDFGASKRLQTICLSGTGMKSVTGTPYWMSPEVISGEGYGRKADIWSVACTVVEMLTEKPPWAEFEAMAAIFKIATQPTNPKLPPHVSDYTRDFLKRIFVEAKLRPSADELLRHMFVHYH

LIM domain kinase 2 (Homo sapiens), sequence (P53671 whole entry, looked up, the tested form may be a part): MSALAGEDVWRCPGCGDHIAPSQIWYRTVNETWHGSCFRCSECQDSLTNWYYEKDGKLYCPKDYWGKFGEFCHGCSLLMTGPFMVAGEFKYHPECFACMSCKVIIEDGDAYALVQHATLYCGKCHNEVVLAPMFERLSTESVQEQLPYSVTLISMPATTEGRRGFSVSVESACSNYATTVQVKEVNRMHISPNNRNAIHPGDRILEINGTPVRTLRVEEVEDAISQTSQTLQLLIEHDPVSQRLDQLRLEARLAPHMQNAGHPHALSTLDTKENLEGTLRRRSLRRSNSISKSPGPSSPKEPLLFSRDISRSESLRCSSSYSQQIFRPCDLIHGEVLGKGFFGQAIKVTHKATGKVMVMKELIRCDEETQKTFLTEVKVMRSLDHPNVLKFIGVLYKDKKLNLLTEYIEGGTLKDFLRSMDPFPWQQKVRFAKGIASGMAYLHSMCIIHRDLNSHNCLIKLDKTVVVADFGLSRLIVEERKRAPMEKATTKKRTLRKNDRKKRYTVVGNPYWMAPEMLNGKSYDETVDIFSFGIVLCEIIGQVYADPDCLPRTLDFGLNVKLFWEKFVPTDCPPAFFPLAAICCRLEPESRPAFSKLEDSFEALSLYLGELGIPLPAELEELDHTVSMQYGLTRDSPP

Compound: C=CC(=O)Nc1cc(-n2c(=O)ccc3cnc4ccc(-c5ccc(NS(C)(=O)=O)cc5)cc4c32)ccc1C
- % of control ([1]; at 1 µM): 92%
- % of control ([1]; at 10 µM): 100%

Compound: Cc1ccc(-c2ccc3c(ccc4sc5c(c43)NC[C@@H](C)NC5=O)n2)cn1
- % of inhibition [2]: 99%

Compound: N#Cc1cccc(-c2c[nH]c3ncnc(N4CCOCC4)c23)c1
- % of inhibition [3]: 83%

Compound: CC[C@@H]1[C@H](F)C(=O)N[C@@H]1COc1nccc2cc(C(N)=O)c(OC)cc12 [ZIMLOVISERTIB]
- % of inhibition [4]: 5.87%
- % of inhibition [5]: 1.8%
